For the assay, the target named is T1, recombinant guanylate cyclase reporter cell line (Rattus norvegicus, UniProt P19686+P20595).
T1 construct: expressed in transfected cells
T1 sequence (P20595 1-619): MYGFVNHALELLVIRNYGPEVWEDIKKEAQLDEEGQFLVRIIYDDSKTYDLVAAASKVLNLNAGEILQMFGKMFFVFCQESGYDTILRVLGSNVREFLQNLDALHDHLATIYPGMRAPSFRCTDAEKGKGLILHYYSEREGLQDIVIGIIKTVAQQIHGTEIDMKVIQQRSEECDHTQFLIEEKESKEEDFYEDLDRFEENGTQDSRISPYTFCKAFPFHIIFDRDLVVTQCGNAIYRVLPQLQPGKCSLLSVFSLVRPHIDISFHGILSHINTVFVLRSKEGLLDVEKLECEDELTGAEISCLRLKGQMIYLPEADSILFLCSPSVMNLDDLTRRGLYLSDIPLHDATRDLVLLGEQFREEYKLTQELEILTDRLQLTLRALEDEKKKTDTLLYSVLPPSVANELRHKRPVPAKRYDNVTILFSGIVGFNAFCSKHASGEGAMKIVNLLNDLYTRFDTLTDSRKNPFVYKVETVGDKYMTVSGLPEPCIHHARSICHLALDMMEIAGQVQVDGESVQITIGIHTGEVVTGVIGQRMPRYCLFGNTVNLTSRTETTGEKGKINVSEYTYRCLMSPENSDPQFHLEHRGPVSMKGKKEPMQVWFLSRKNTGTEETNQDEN
T1 sequence (P19686 1-690): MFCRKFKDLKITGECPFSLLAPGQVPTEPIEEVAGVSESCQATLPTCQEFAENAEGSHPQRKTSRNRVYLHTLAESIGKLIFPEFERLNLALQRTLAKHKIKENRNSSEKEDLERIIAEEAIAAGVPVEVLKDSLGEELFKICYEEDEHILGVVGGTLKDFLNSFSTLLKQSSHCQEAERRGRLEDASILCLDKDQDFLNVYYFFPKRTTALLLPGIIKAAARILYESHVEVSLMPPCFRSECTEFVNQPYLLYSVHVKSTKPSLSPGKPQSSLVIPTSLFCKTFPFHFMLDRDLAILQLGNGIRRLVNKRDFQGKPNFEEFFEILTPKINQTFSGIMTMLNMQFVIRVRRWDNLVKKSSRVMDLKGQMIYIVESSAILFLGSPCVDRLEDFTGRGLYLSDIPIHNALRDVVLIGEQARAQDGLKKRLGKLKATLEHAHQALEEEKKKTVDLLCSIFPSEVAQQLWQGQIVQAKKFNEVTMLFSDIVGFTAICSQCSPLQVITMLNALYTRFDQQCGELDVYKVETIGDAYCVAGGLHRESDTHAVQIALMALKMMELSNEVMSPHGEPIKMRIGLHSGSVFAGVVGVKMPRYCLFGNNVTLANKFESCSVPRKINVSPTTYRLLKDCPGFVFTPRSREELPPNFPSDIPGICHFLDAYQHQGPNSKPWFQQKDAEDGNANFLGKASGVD
Nature of the assay: B-2. Action on recombinant guanylate cyclase reporter cell line. Format: cell-based. Particulars: MEC = minimal effective concentration; in some cases mean values from individual determinations. The method in brief:
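Cellular activity was measured in a reporter cell line expressing recombinant guanylate cyclase. Values are given as MEC, the minimal effective concentration, and some are means of individual determinations.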

Turning to `Cc1cc(OCc2c(F)cccc2F)c2nc(C)c(C(=O)NC3(C)CCC3(C)N)n2c1` (single isomer, unassigned; enantiomer b) [Example 337, ent-N-[(2-amino-1,2-dimethylcyclobutyl]-8-[(2,6-difluorobenzyl)oxy]-2,6-dimethylimidazo[1,2-a]pyridine-3-carboxamide (Enantiomer B)], the MEC stood at 0.55 µM. With `Cc1cc(OCc2c(F)cccc2F)c2nc(C)c(C(=O)NCC(N)C#N)n2c1` (single isomer, unassigned; enantiomer b) [Example 402, ent-N-(2-amino-2-cyanoethyl)-8-[(2,6-difluorobenzyl)oxy]-2,6-dimethylimidazo[1,2-a]pyridine-3-carboxamide (Enantiomer B)] the figure was 0.30 µM; with `Cc1cc(OCc2c(F)cccc2F)c2nc(C)c(C(=O)NCC(C)(N)CCC(F)(F)F)n2c1` (single isomer, unassigned; enantiomer b) [Example 409, ent-N-(2-amino-5,5,5-trifluoro-2-methylpentyl)-8-[(2,6-difluorobenzyl)oxy]-2,6-dimethylimidazo[1,2-a]pyridine-3-carboxamide (Enantiomer B)], 0.03 µM; with `Cc1cc(OCc2c(F)ccc(F)c2F)c2nc(C)c(C(=O)NCC(C)(N)CCC(F)(F)F)n2c1` (single isomer, unassigned; enantiomer b) [Example 411, ent-N-(2-amino-5,5,5-trifluoro-2-methylpentyl)-2,6-dimethyl-8-[(2,3,6-trifluorobenzyl)oxy]imidazo[1,2-a]pyridine-3-carboxamide (Enantiomer B)], 0.03 µM. With `Cc1nc2c(OCc3c(F)cccc3F)cc(Cl)cn2c1C(=O)NC1CNCc2ccccc21` (single isomer, unassigned; ent-6) [Example 107, ent-6-chloro-8-[(2,6-difluorobenzyl)oxy]-2-methyl-N-(1,2,3,4-tetrahydroisoquinolin-4-yl)imidazo[1,2-a]pyridine-3-carboxamide] the figure was 0.30 µM; with `Cc1nc2c(OCc3c(F)cccc3F)cc(Cl)cn2c1C(=O)NC1CNCc2ccccc21` (single isomer, unassigned; ent-6) [Example 108, ent-6-chloro-8-[(2,6-difluorobenzyl)oxy]-2-methyl-N-(1,2,3,4-tetrahydroisoquinolin-4-yl)imidazo[1,2-a]pyridine-3-carboxamide], 1.00 µM; with `Cc1nc2c(OCc3c(F)cccc3F)cc(Cl)cn2c1C(=O)NCC1CCCCN1` (single isomer, unassigned; ent-6) [Example 190, ent-6-Chloro-8-[(2,6-difluorobenzyl)oxy]-2-methyl-N-(piperidin-2-ylmethyl)imidazo[1,2-a]-pyridine-3-carboxamide], 1.00 µM.

Regarding `Cc1nc2c(OCc3c(F)cccc3F)cc(Cl)cn2c1C(=O)NCC1CCCCN1` (single isomer, unassigned; ent-6) [Example 191, ent-6-Chloro-8-[(2,6-difluorobenzyl)oxy]-2-methyl-N-(piperidin-2-ylmethyl)imidazo[1,2-a]-pyridine-3-carboxamide], the MEC amounted to 1.00 µM. The result for `Cc1nc2c(OCc3c(F)cccc3F)cccn2c1C(=O)NC1CNc2ccccc21` (single isomer, unassigned; ent-8) [Example 47, ent-8-[(2,6-Difluorobenzyl)oxy]-N-(2,3-dihydro-1H-indol-3-yl)-2-methylimidazo[1,2-a]pyridine-3-carboxamide] reads 0.30 µM; that for `Cc1nc2c(OCc3c(F)cccc3F)cccn2c1C(=O)NC1CCNc2ccccc21` (single isomer, unassigned; ent-8) [Example 52, ent-8-[(2,6-Difluorobenzyl)oxy]-2-methyl-N-(1,2,3,4-tetrahydroquinolin-4-yl)imidazo[1,2-a]-pyridine-3-carboxamide], 0.03 µM.

As for `Cc1nc2c(OCc3c(F)cccc3F)cccn2c1C(=O)NC1CNc2ccccc2C1` (single isomer, unassigned; ent-8) [Example 81, ent-8-[(2,6-Difluorobenzyl)oxy]-2-methyl-N-(1,2,3,4-tetrahydroquinolin-3-yl)imidazo[1,2-a]-pyridine-3-carboxamide], the MEC worked out at 1.00 µM. With `Cc1nc2c(OCc3c(F)cccc3F)cccn2c1C(=O)NC1CCNc2ccc(F)cc21` (single isomer, unassigned; ent-8) [Example 105, ent-8-[(2,6-difluorobenzyl)oxy]-N-(6-fluoro-1,2,3,4-tetrahydroquinolin-4-yl)-2-methylimidazo[1,2-a] pyridine-3-carboxamide] the figure was 0.30 µM; with `Cc1nc2c(OCc3c(F)cccc3F)cccn2c1C(=O)NC1CCNc2ccc(F)cc21` (single isomer, unassigned; ent-8) [Example 106, ent-8-[(2,6-difluorobenzyl)oxy]-N-(6-fluoro-1,2,3,4-tetrahydroquinolin-4-yl)-2-methylimidazo[1,2-a] pyridine-3-carboxamide], 0.03 µM; with `Cc1nc2c(OCc3c(F)cccc3F)cccn2c1C(=O)NC1CNCc2ccccc21` (single isomer, unassigned; ent-8) [Example 109, ent-8-[(2,6-difluorobenzyl)oxy]-2-methyl-N-(1,2,3,4-tetrahydroisoquinolin-4-yl)imidazo[1,2-a]pyridine-3-carboxamide], 1.00 µM.

For `Cc1nc2c(OCc3c(F)cccc3F)cccn2c1C(=O)NC1CNCc2ccccc21` (single isomer, unassigned; ent-8) [Example 110, ent-8-[(2,6-difluorobenzyl)oxy]-2-methyl-N-(1,2,3,4-tetrahydroisoquinolin-4-yl)imidazo[1,2-a]pyridine-3-carboxamide], the MEC came to 0.30 µM. The result for `Cc1nc2c(OCc3c(F)cccc3F)cccn2c1C(=O)NC1CCNc2ccc(C(F)(F)F)cc21` (single isomer, unassigned; ent-8) [Example 111, ent-8-[(2,6-difluorobenzyl)oxy]-2-methyl-N-[6-(trifluoromethyl)-1,2,3,4-tetrahydroquinolin-4-yl]imidazo[1,2-a]pyridine-3-carboxamide] reads 1.00 µM. As to `Cc1nc2c(OCc3c(F)cccc3F)cccn2c1C(=O)NC1CCNc2ccc(C(F)(F)F)cc21` (single isomer, unassigned; ent-8) [Example 112, ent-8-[(2,6-difluorobenzyl)oxy]-2-methyl-N-[6-(trifluoromethyl)-1,2,3,4-tetrahydroquinolin-4-yl]imidazo[1,2-a]pyridine-3-carboxamide], the MEC came out at 0.10 µM. The result for `Cc1nc2c(OCc3c(F)cccc3F)cccn2c1C(=O)NCC(C)N1CCOCC1` (single isomer, unassigned; ent-8) [Example 180, ent-8-[(2,6-Difluorobenzyl)oxy]-2-methyl-N-[2-(morpholin-4-yl)propyl]imidazo[1,2-a]pyridine-3-carboxamide] reads 1.00 µM. With `Cc1nc2c(OCc3c(F)cccc3F)cccn2c1C(=O)NCC(C)N1CCOCC1` (single isomer, unassigned; ent-8) [Example 181, ent-8-[(2,6-Difluorobenzyl)oxy]-2-methyl-N-[2-(morpholin-4-yl)propyl]imidazo[1,2-a]pyridine-3-carboxamide] the figure was 1.00 µM; with `Cc1nc2c(OCc3c(F)cccc3F)cccn2c1C(=O)NC(CN1CCOCC1)c1ccccc1` (single isomer, unassigned; ent-8) [Example 182, ent-8-[(2,6-Difluorobenzyl)oxy]-2-methyl-N-[2-(morpholin-4-yl)-1-phenylethyl]imidazo[1,2-a]-pyridine-3-carboxamide], 3.00 µM; with `Cc1nc2c(OCc3c(F)cccc3F)cccn2c1C(=O)NC(CN1CCOCC1)c1ccccc1` (single isomer, unassigned; ent-8) [Example 183, ent-8-[(2,6-Difluorobenzyl)oxy]-2-methyl-N-[2-(morpholin-4-yl)-1-phenylethyl]imidazo[1,2-a]-pyridine-3-carboxamide], 1.00 µM.

The record behind these values is patent US9624214B2, “Amino-substituted imidazo[1,2-a]pyridinecarboxamides and their use” (BAYER PHARMA AKTIENGESELLSCHAFT, priority 2012, dated 2017).
